# Columns and labels:
# Format in all cases: cell-based, human
# KIR2DL4 = KIR2DL4 expression on T cells by flow cytometry; conditions: 5-azaC 72 h, p<0.001 for both
# Procedure: T cell purification and culture. Peripheral blood mononuclear cells (PBMC) were isolated from healthy donors by density gradient centrifugation, stimulated for 18 hours with 1 μg/mlphytohemagglutinin (PHA) (Murex, Norcross, Ga.), then treated or not with 5 μm 5-azacytidine (5-azaC, Sigma, St. Louis, Mo.) for 72 hours as described (6). Total T cells, CD4^+ T cells or CD8′ T cells then were purified using the pan T cell isolation kit II or the CD4^+ and CD8^+ T cell isolation kit II from Miltenyi (Auburn, Calif.). T cells were typically >94% CD3^+ by flow cytometry. Jurkat cells (E6-1) were maintained in culture as described (11). This protocol was approved by the University of Michigan Institutional Review Board.
# Flow Cytometric Analysis. The following monoclonal antibodies were used: CYC-anti-CD3, FITC-anti-CD8, CYC-anti-CD4, FITC-anti-CD28, CYC-mouse IgG1 and FITC-mouse-IgG1 (all from BD PharMingen, San Diego, Calif.). Anti-CD158b1/b2, j-PE (GL183, reactive with KIR 2DL2/2DL3/2DS2) was obtained from Beckman Coulter Immunotech (Buckinghamshire, UK), anti-CD158d-PE (anti-KIR2DL4) from R&D Systems (Minneapolis, Minn.), and PE-mouse-IgG2A from Abcam (Cambridge Mass.). Cell staining and fixation were performed as described (2; 6), and cells analyzed using a FACSCalibur flow cytometer (BD Biosciences, Franklin Lakes, N.J.).
# KIR2DL2 promoter = KIR2DL2 promoter methylation, bisulfite sequencing and MS-PCR
# Procedure: Bisulfite conversion and DNA sequencing. Genomic DNA was isolated from T cells using FlexiGene DNA Kits (QIAGEN) then treated with sodium bisulfite as described (15). HotStar Taq (QIAGEN) was used for amplification with the following conditions: initial incubation 95° C. 15 min, then 45 cycles 95° C. 30 s, 52° C. 30 s and 72° C. 30 s. PCR products were purified using QIAEXII Gel Extraction Kits (QIAGEN), and cloned using the pGEM-T Easy Vector System (Promega, Madison, Wis.). 10 cloned fragments were sequenced for each sample by the University of Michigan Sequencing Core.
# Real-time quantitative methylation specific PCR (MSP). Three real-time MSP assays were developed for detection and quantitation of each KIR gene: one specific for the bisulfite-converted methylated sequence, one for the bisulfite-converted unmethylated sequence, and a loading control comprising primers to an adjacent bisulfite-converted sequence lacking CG pairs. MSP reactions were performed using QuantiTect SYBR Green PCR kits (QIAGEN) according to the manufacture's protocol using […] of each primer, 100 ng converted DNA and the Rotor-Gene 3000. […] Levels of amplified methylated and unmethylated fragments were standardized to the control fragment, and the methylation index calculated as […]
# Sp1 = Sp1 quantitation in nuclear extracts of T cells; conditions: PHA-stimulated T cells, 5-azaC 72 h
# [1] = system: KIR2DL2 and KIR2DL4 promoters; experiment: Chromatin immunoprecipitation (ChIP) assays; conditions: 5-azaC treated vs untreated, n=3, p<0.03
# Procedure: Chromatin immunoprecipitation (ChIP) assays. Transcription factor binding to KIR2DL2 and KIR2DL4 promoter sequences was determined using mAb to Sp1 (Upstate Biotechnology), Ets1 and AML1 (Abcam) and the ChIP-IT kit with protocols provided by the manufacturer (Active Motif, Carlsbad, Calif.). Briefly, 4.5×10^7 untreated and 5-azaC treated T cells were crosslinked, sonicated, chromatin immunoprecipitated with the relevant mAb, and precipitated DNA amplified by real-time PCR using a Rotor-Gene 3000. Standard curves were determined for each primer set by dilution of the total input 5-azaC treated DNA in a 0.1-100 ng range. The amount of each sequence in the input and precipitated DNA was calculated from the cycle threshold (CT) for each primer set using the standard curves. The primers used were: […]
# ChIP assays were then used to compare transcription factor binding to the KIR2DL2 and KIR2DL4 promoters in untreated and 5-azaC treated cells. […] The reason for this is uncertain, but may reflect the structural differences in the KIR2DL2 and KIR2DL4 promoters.
smiles,measurement,setting,value
"Nc1ncn([C@@H]2O[C@H](CO)[C@@H](O)[C@H]2O)c(=O)n1 [5-azaC, 5-azacytidine]",KIR2DL4 expression on CD4+ and CD8+ T cells,KIR2DL4,induces KIR2DL4 expression on CD4+ and CD8+ T cells
same,"KIR2DL2 promoter methylation pattern, bisulfite sequencing","KIR2DL2 promoter; CD4+ and CD8+ cells, 5-azaC treated vs untreated",generalized demethylation throughout the region
same,"KIR2DL2 promoter methylation index, MS-PCR","KIR2DL2 promoter; CD4+ and CD8+ subsets, p<0.001",demethylates these regions in all 5 subjects
same,activated Sp1 levels,Sp1,increases activated Sp1 levels
same,"binding of Sp1, Ets1 and AML1 to both promoters",[1],increases binding of all 3 transcription factors

# Reference: US20110256121A1, “METHODS AND KITS FOR DIAGNOSING OR MONITORING AUTOIMMUNE AND CHRONIC INFLAMMATORY DISEASES” (THE REGENTS OF THE UNIVERSITY OF MICHIGAN, priority 2008, published 2011)
